Reference: US6730480B1, “Sphingosine kinase enzyme” (Johnson & Johnson Pharmaceutical Research and Development …, priority 1999, dated 2004)
Entries after “also recorded” stand apart in the source; their conditions may differ. Values belong to the compound of their own block, whether it stands above or below them.

Experiments:
[1] = molecular target: T1, native sphingosine kinase (human placenta SK1) (Homo sapiens, UniProt Q9NYA1); assay: Sphingosine kinase enzyme assay with native SK purified from human placenta; format: biochemical; details: for Substrate specificity (phosphorylation by the enzyme): substrates at 100 μM in 0.25% Triton X-100, relative to sphingosine; for Km / Km (mol %): substrate kinetics; for Metal ion requirement (sphingosine kinase activity): metal ions or EDTA at 10 mM; for kcat: Triton X-100 mixed micelles; for Km (mol %): mol % of Triton X-100 (0.25% w/v); for Effect of phospholipid on sphingosine kinase activity: phospholipid at 10 mol% of Triton X-100
T1 construct: from tissue; host or cells: human placenta
T1 sequence (Q9NYA1 whole entry): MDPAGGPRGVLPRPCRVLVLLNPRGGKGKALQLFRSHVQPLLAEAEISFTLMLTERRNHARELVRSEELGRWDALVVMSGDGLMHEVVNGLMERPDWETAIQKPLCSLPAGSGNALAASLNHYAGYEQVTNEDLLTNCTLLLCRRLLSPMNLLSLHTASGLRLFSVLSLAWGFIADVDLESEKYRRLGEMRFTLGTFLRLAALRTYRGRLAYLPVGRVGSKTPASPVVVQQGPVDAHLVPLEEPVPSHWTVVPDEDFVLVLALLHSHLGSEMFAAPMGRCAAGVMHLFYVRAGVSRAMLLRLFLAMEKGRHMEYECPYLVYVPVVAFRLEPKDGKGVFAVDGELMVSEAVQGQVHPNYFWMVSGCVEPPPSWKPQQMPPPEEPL
Method: Sphingosine kinase activity was routinely determined using D-erythro-sphingosine and [γ^32P]ATP as substrates, essentially as previously described (Olivera et al., 1998) with some modifications. […] Reactions were terminated and sphingosine-1-phosphate extracted by the addition of 700 μl of chloroform/methanol/HCl (100:200:1. v/v), followed by vigorous mixing, addition of 200 μp of chloroform and 200 μl of 2 M KCl, and phase separation by centrifugation. […] Sunnyvale, Calif.). One unit (U) of activity is defined as 1pmol of S1P formed per minute. […] Similarly, thermal stabilities were determined by assaying the residual activity after pre-incubation of the enzymes at various temperatures (4-80° C.) for 30 min at pH 7.4 (50 mM Tris/HCl containing 10% glycerol, 0.5 M NaCl and 0.05% Triton X-100). Substrate kinetics were analysed using Michaelis-Menten kinetics with a weighted non-linear regression program (Easterby, 1996). […] In both cases the data were analysed by non-linear regression. The effect of metal ions on the activity of the native and recombinant sphingosine kinases were determined by assaying the activity under standard conditions in the presence of various metal ions or EDTA at 10 mM. […] PC, phosphatidylcholine; PS phosphatidylserine; PE, […]; PI, phosphatidylinositol.

[2] = molecular target: T2, recombinant human sphingosine kinase (Homo sapiens, UniProt Q9NYA1); assay: Sphingosine kinase enzyme assay with recombinant human SK expressed in E. coli; format: biochemical; details: for Substrate specificity (phosphorylation by the enzyme): substrates at 100 μM in 0.25% Triton X-100, relative to sphingosine; for Km / Km (mol %): substrate kinetics; for Metal ion requirement (sphingosine kinase activity): metal ions or EDTA at 10 mM; for kcat: Triton X-100 mixed micelles; for Km (mol %): mol % of Triton X-100 (0.25% w/v); for Effect of phospholipid on sphingosine kinase activity: phospholipid at 10 mol% of Triton X-100
T2 construct: The full length SPHK cDNA cloned into pGEX4T2 was transformed into E. coli BL21; GST (N, cleaved yes); made in house; host or cells: E. coli BL21
T2 sequence (Q9NYA1 whole entry): as above
Method: Sphingosine kinase activity was routinely determined using D-erythro-sphingosine and [γ^32P]ATP as substrates, essentially as previously described (Olivera et al., 1998) with some modifications. […] Reactions were terminated and sphingosine-1-phosphate extracted by the addition of 700 μl of chloroform/methanol/HCl (100:200:1. v/v), followed by vigorous mixing, addition of 200 μp of chloroform and 200 μl of 2 M KCl, and phase separation by centrifugation. […] Sunnyvale, Calif.). One unit (U) of activity is defined as 1pmol of S1P formed per minute. The full length SPHK cDNA cloned into pGEX4[…]. coli BL21. Overnight cultures (100 ml) of transformed isolates were grown with shaking (200 rpm) at 30° C. in Superbroth (20 g/L glucose, 35 g/L tryptone, 20 g/L yeast extract, 5 g/L NaCl, pH 7.5) medium containing ampicillin (100 mg/L). The cultures were diluted 1:20 in fresh medium and grown at 30° C. with shaking to an OD600 of 0.6-0.7. Expression of the glutathione-s-transferase (GST)-coupled sphingosine kinase (GST-SK) was then induced by addition of 0.1 mM isopropyl-β-D-thiogalactoside and further incubation of the cultures at 30° C. for 3 h. After this time the bacterial cells were then harvested by centrifugation at 6,000 g for 20 min at 4° C. and resuspended in 20 ml of buffer B containing 250 mM NaCl. the cells were then lysed with lysozyme at a final concentration of 0.3 mg/ml for 15 min at 25° C. followed by sonication, consisting of three cycles of 20 s ultrasonic pulses followed by one minute cooling. The lysate was then clarified by centrifugation at 50,000 g for 45 min at 4° C., followed by filtrating through 0.22 μm filters. To be filtered supernatant was then incubated with 0.2 volumes of 50% (w/v) glutathione-Sepharose 4B (Pharmacia) that was washed and pro-equilibrated with buffer B, for 60 min at 4° C. with constant mixing. After this time the mixture was poured into a glass chromatography column (10 mm diam.) and the beads (with bound GST-SK) washed with 10 column volumes of buffer B at 4° C. The GST-SK was then eluted from the column in 10 ml of buffer B containing 10 mM reduced glutathione. Cleavage of the GST away from sphingosine kinase was then performed by incubation with 20 μg (30 N.I.H. units) thrombin (Pharmacia) for 3 h at 25° C. The released sphingosine kinase was then purified by application of the cleavage mix to a calmodulin-Sepharose column and then a Mono-Q anion exchange column for the purification of the sphingosine kinase from human placenta. […] Similarly, thermal stabilities were determined by assaying the residual activity after pre-incubation of the enzymes at various temperatures (4-80° C.) for 30 min at pH 7.4 (50 mM Tris/HCl containing 10% glycerol, 0.5 M NaCl and 0.05% Triton X-100). Substrate kinetics were analysed using Michaelis-Menten kinetics with a weighted non-linear regression program (Easterby, 1996). […] In both cases the data were analysed by non-linear regression. The effect of metal ions on the activity of the native and recombinant sphingosine kinases were determined by assaying the activity under standard conditions in the presence of various metal ions or EDTA at 10 mM. […] PC, phosphatidylcholine; PS phosphatidylserine; PE, […]; PI, phosphatidylinositol.

[3] = ADP 0.1 to 5 mM, with respect to ATP
[4] = inhibitor 2 to 50 μM, mol % of Triton X-100
[5] = listed as N,N,N, -trimethylsphingosinei

Compound: CCCCCCCCCCCCCCC[C@H](O)[C@@H](N)CO (racemic) [DL-threo-dihydrosphingosine]
Inhibition of sphingosine kinase (kind of inhibition) [1]: competitive inhibition
Substrate specificity (phosphorylation by the enzyme) [1]: not phosphorylated; also recorded: No phosphorylation
Inhibition of sphingosine kinase (kind of inhibition) [2]: competitive inhibition
Substrate specificity (phosphorylation by the enzyme) [2]: not phosphorylated; also recorded: No phosphorylation

Compound: CCCCCCCC(=O)OC[C@H](CO)OC(=O)CCCCCCC [1,2-dioctanoyl-sn-glycerol]
Substrate specificity (phosphorylation by the enzyme) [1]: not phosphorylated; also recorded: No phosphorylation
Substrate specificity (phosphorylation by the enzyme) [2]: not phosphorylated; also recorded: No phosphorylation

Compound: CCCCCCCC/C=C\CCCCCCCC(=O)OC[C@H](CO)OC(=O)CCCCCCC/C=C\CCCCCCCC [1,2-dioleoyl-sn-glycerol]
Substrate specificity (phosphorylation by the enzyme) [1]: not phosphorylated; also recorded: No phosphorylation
Substrate specificity (phosphorylation by the enzyme) [2]: not phosphorylated; also recorded: No phosphorylation

Inhibition of sphingosine kinase (kind of inhibition) [1]: weak competitive inhibition
Ki [1, 3]: 1100 ± 300 µM
Inhibition of sphingosine kinase (kind of inhibition) [2]: weak competitive inhibition
Ki [2, 3]: 900 ± 200 µM
Compound: Nc1ncnc2c1ncn2[C@@H]1O[C@H](COP(=O)(O)OP(=O)(O)O)[C@@H](O)[C@H]1O [ADP]

Km ([1]; bulk solution concentration): 77 ± 11 µM
Km ([2]; bulk solution concentration): 86 ± 12 µM
Compound: Nc1ncnc2c1ncn2[C@@H]1O[C@H](COP(=O)(O)OP(=O)(O)OP(=O)(O)O)[C@@H](O)[C@H]1O [ATP]

Metal ion requirement (sphingosine kinase activity) [1]: only very low activity
Metal ion requirement (sphingosine kinase activity) [2]: only very low activity
Compound: [Ca+2] [Ca^2+]

Compound: [Cu+2] [Cu^2−]
Metal ion requirement (sphingosine kinase activity) [1]: did not support sphingosine kinase activity
Metal ion requirement (sphingosine kinase activity) [2]: did not support sphingosine kinase activity

Compound: CCCCCCCCCCCCCCC[C@@H](O)[C@@H](N)CO [Dihydrosphingosine, D-erythro-dihydrosphingosine]
kcat [1]: 35 S^−1
Km ([1]; bulk solution concentration): 20 ± 2 µM
Km (mol %) [1]: 0.50 ± 0.05 mol %
Substrate specificity (phosphorylation by the enzyme) [1]: greatest activity
kcat [2]: 76 S^−1
Km ([2]; bulk solution concentration): 19 ± 2 µM
Km (mol %) [2]: 0.48 ± 0.05 mol %
Substrate specificity (phosphorylation by the enzyme) [2]: greatest activity

Metal ion requirement (sphingosine kinase activity) [1]: elimated activity
Metal ion requirement (sphingosine kinase activity) [2]: elimated activity
Compound: O=C(O)CN(CCN(CC(=O)O)CC(=O)O)CC(=O)O [EDTA]

Compound: [Fe+2] [Fe^2+]
Metal ion requirement (sphingosine kinase activity) [1]: did not support sphingosine kinase activity
Metal ion requirement (sphingosine kinase activity) [2]: did not support sphingosine kinase activity

Compound: CCCC[C@@H](C)[C@@H](OC(=O)C[C@@H](CC(=O)O)C(=O)O)[C@H](C[C@@H](C)C[C@H](O)CCCC[C@@H](O)C[C@H](O)[C@H](C)N)OC(=O)C[C@@H](CC(=O)O)C(=O)O [Fumosin B1]
Inhibition of sphingosine kinase (kind of inhibition) [1]: No inhibition
Inhibition of sphingosine kinase (kind of inhibition) [2]: No inhibition

Metal ion requirement (sphingosine kinase activity) [1]: highest activity
Metal ion requirement (sphingosine kinase activity) [2]: highest activity
Compound: [Mg+2] [Mg^2+]

Metal ion requirement (sphingosine kinase activity) [1]: somewhat lower activity
Metal ion requirement (sphingosine kinase activity) [2]: somewhat lower activity
Compound: [Mn+2] [Mn^2−]

Inhibition of sphingosine kinase (kind of inhibition) [1]: competitive inhibition
Ki ([1]; bulk solution concentration): 4.6 ± 1 µM
Ki (mol %) [1, 4]: 0.12 ± 0.03 mol %
Substrate specificity (phosphorylation by the enzyme) [1]: not phosphorylated
Substrate specificity (phosphorylation by the enzyme) [1, 5]: No phosphorylation
Inhibition of sphingosine kinase (kind of inhibition) [2]: competitive inhibition
Ki ([2]; bulk solution concentration): 3.8 ± 1 µM
Ki (mol %) [2, 4]: 0.10 ± 0.02 mol %
Substrate specificity (phosphorylation by the enzyme) [2]: not phosphorylated
Substrate specificity (phosphorylation by the enzyme) [2, 5]: No phosphorylation
Compound: CCCCCCCCCCCCC/C=C/[C@@H](O)[C@H](CO)[N+](C)(C)C [N,N,N-trimethylsphingosine]

Inhibition of sphingosine kinase (kind of inhibition) [1]: No inhibition
Inhibition of sphingosine kinase (kind of inhibition) [2]: No inhibition
Compound: CCCCCCCCCCCCC/C=C/[C@@H](O)[C@H](CO)NC(C)=O [N-acetylsphingosine]
Substrate specificity (phosphorylation by the enzyme) [1]: not phosphorylated; also recorded: No phosphorylation
Substrate specificity (phosphorylation by the enzyme) [2]: not phosphorylated; also recorded: No phosphorylation

kcat [1]: 50 S^−1
Km (mol %) [1]: 0.35 ± 0.05 mol %
Substrate specificity (phosphorylation by the enzyme) [1]: greatest activity
kcat [2]: 85 S^−1
Km (mol %) [2]: 0.30 ± 0.07 mol %
Substrate specificity (phosphorylation by the enzyme) [2]: greatest activity
Compound: CCCCCCCCCCCCC/C=C/[C@@H](O)[C@@H](N)CO [Sphingosine, D-erythro-Sphingosine]

Compound: [Zn+2] [ZN^2−]
Metal ion requirement (sphingosine kinase activity) [1]: did not support sphingosine kinase activity
Metal ion requirement (sphingosine kinase activity) [2]: did not support sphingosine kinase activity

Substrate specificity (phosphorylation by the enzyme) [1]: Low activity
Substrate specificity (phosphorylation by the enzyme) [2]: Low activity
Compound: CCCCCCCCCCCCCC[C@@H](O)[C@@H](O)[C@@H](N)CO [phytosphingosine, Phytosphingosine]

Compound: L-α-phosphatidylcholine
Effect of phospholipid on sphingosine kinase activity [1]: did not result in any detectable differences
Effect of phospholipid on sphingosine kinase activity [2]: did not result in any detectable differences

Compound: L-α-phosphatidyldethanolamine
Effect of phospholipid on sphingosine kinase activity [1]: did not result in any detectable differences
Effect of phospholipid on sphingosine kinase activity [2]: did not result in any detectable differences

Compound: L-α-phosphatidylinositol
Substrate specificity (phosphorylation by the enzyme) [1]: not phosphorylated; also recorded: No phosphorylation
Substrate specificity (phosphorylation by the enzyme) [2]: not phosphorylated; also recorded: No phosphorylation
